Patent US9872919B2, “Prodrugs for selective anticancer therapy” (THE RESEARCH FOUNDATION FOR THE STATE UNIVERSITY OF NEW YORK, priority 2012, dated 2018)

Experiments:
[1] = test system: normal mammary gland epithelial cells (Eph4); assay: PI staining cytotoxicity, normal mammary gland epithelial cells; format: cell-based, mouse
Protocol: (§1) FIG. 17. Selective cytotoxicity by BKAc-Puro on breast cancer cells. Normal mammary gland epithelial cells (Eph4) and breast cancer cells (MCF-7 and MDA-MB-231) were grown and analyzed as in FIG. 10. BF, bright field. PI, fluorescent PI channel. BKAc-Puro can selectively cause cell death in breast cancer cells (MCF-7 and MDA-MB-231) while leaving normal Eph4 cells unharmed.
(§2) Cell number was determined by cell counting using improved Neubauer hemacytometer. Cell viability was calculated as the number of viable cells divided by the total number of cells using Trypan Blue Stain (Invitrogen) to distinguish non-viable cells. Data were obtained from duplicated samples with quadruplicate measurements. MTS based cell viability assay was performed using CellTiter 96 Aqueous Cell Proliferation Assay (Promega) according to the manufacturer's instruction. […] After additional 2-3 h incubation, the absorbance of the formazan at 490 nm was measured by the microplate reader. […] Determination of non-viable cells using PI staining was performed by adding 1 μg/ml of PI solution (Sigma) to the cell culture, prior to the examination under fluorescence microscopy (Axiovert 3, Carl Zeiss) through a×32 objective equipped with a digital imaging processor (Infinity 3, Lumenera).

CCD841-CoN cells = assay: MTS cell viability assay, normal colon cells; format: cell-based, human; conditions: negative control in pancreatic and prostate panels
Protocol: FIG. 15. Inhibition of cell viability by BKAc-Puro. The cell lines were grown and analyzed as in FIG. 12.
FIG. 18. Selective cytotoxicity by BKAc-Puro on pancreatic cancer cells. Pancreatic cancer (BXPC-3 and Miapaca-2), colon cancer (HCT116 as a positive control sensitive to the drug), and normal colon (CCD841-CoN as a negative control) cells were grown and analyzed as in FIG. 13. BKAc-Puro can effectively cause cell death on pancreatic cancer cells (BXPC-3 and MiaPaca-2) that are known to resistant to conventional chemotherapeutic drugs including 5-FU and Gemicitabine.
(§3) FIG. 19. Selective cytotoxicity by BKAc-Puro on prostate cancer cells. Prostate cancer (PC-3, DU-145, and LNCaP), colon cancer (HCT116 as a positive control sensitive to the drug), and normal colon (CCD841-CoN as a negative control) cells were grown and analyzed as in FIG. 13. BKAc-Puro can effectively cause cell death on prostate cancer cells.
Cell number was determined by cell counting using improved Neubauer hemacytometer. Cell viability was calculated as the number of viable cells divided by the total number of cells using Trypan Blue Stain (Invitrogen) to distinguish non-viable cells. Data were obtained from duplicated samples with quadruplicate measurements. […] After additional 2-3 h incubation, the absorbance of the formazan at 490 nm was measured by the microplate reader. […]

[2] = test system: non-malignant Caco-2 cells; assay: MTS cell viability assay, Caco-2; format: cell-based, human
Protocol: (§4) FIG. 13. Inhibition of cell viability by BKAc-Puro is presented in dose-response curve format for the same cell lines as in FIG. 8. The cell lines were treated with DMSO or the indicated doses of agent (4.22, 8.44, 16.9, 33.8, 67.5, or 135 μM) for 5 d followed by MTS assay. Data represent mean values of triplicate mesurements±s.d. (n=3). IC50 values were fit by logistic regression.
as §2

[3] = test system: malignant cell lines with high HDAC and CTSL activity (COGA-10, HCA-7, HT29, HCT116); assay: MTS cell viability assay, malignant colon cancer cell lines; format: cell-based, human; conditions: 5 d, panel of colon cell lines, given as a range, read-out: IC50, inhibition of cell viability
Protocol: as §4, §2

[4] = test system: prostate cancer cells (PC-3, DU-145 and LNCaP); assay: Cytotoxicity on prostate cancer cells (MTS); format: cell-based, human
Protocol: as §3, §2

[5] = test system: breast cancer cells (MCF-7 and MDA-MB-231); assay: PI staining cytotoxicity, breast cancer cells; format: cell-based, human
Protocol: as §1, §2

[6] = test system: malignant colon cancer cells with high HDAC and CTSL activity; assay: Cell number, trypan blue viability and PI staining, malignant colon cancer cells; format: cell-based, human; conditions: 54 μM
Protocol: (§5) FIG. 9. The colon cancer cell lines were grown for 5 d either with vehicle control DMSO (gray symbols) or 54 μM BKAc-Puro (red and blue symbols), and cell number was determined at the indicated time points.
FIG. 10. The cell lines were grown as in FIG. 8, cell viability was determined by trypan blue at the indicated time points, and is presented as the percentage of live cells treated with vehicle control (gray symbols) or BKAc-Puro (red and blue symbols).
FIG. 11. The cell lines were grown as in FIG. 8, and dead cells were determined after 80 h by PI signal under fluorescent microscope. BF, bright field. PI, fluorescent PI channel.
FIG. 12. Selective cytotoxicity by BKAc-Puro. The cell lines were grown and analyzed as in FIG. 10. […]
as §2, with “cells.” for “cells. Data were obtained from duplicated samples with quadruplicate measurements. MTS based cell viability assay was performed using CellTiter 96 Aqueous Cell Proliferation Assay (Promega) according to the manufacturer's instruction.”

[7] = test system: non-malignant Caco-2 cells; assay: Cell number determination, Caco-2; format: cell-based, human; conditions: 54 μM, 5 d
Protocol: as §5
as §2, with “instruction. Either 1 μl of DMSO alone or variable concentrations of BKAc-Puro or Puro in DMSO were added to the cell lines seeded at 5×10^4 cells per well in 96-well tissue culture plates in 100 μl of the growth medium, followed by 3-5 d incubation at 37° C. with 5% CO2 atmosphere.” for “instruction.”

Description for HCT116 xenograft tumors: HCT116 cells were implanted subcutaneously into female nude mice. When the developed tumors reached 200 mm^3, animals were intraperitoneally injected by the indicated dose of the compound or vehicle control (DMSO). Tumor volume was estimated by the equation vol=(a×b^2)/2, where vol, a, and b represent volume, the length of the major axis, and the length of the minor axis, respectively. […] (b) Body weight change during the treatment in a. Value is expressed in percent change compared to the day of the first treatment.
HCT116 cells were implanted subcutaneously into female nude mice. When palpable tumors reached 50-150 mm^3, animals were randomized and treated by the indicated dose of the compound or vehicle control (DMSO) via intraperitoneal injection. Tumor incidence is presented as number of mice developed tumor (volume>300 mm^3) after 2 weeks of daily treatment/number of mice treated. Tumor volume was estimated by the equation vol=(a×b^2)/2, where vol, a, and b represent volume, the length of the major axis, and the length of the minor axis, respectively.
The growth inhibitory effects of the compounds on size-matched xenografts are examined by subcutaneous implantation of HCT116 cells into nude mice. HCT116 cells are injected subcutaneously and allowed to develop palpable tumors (50-150 mm^3) before initiation of drug administration. Mice (5-10 animals per group) are treated with the vehicle (DMSO or PBS) or the prodrugs by intraperitoneal administration. […] Tumor volumes are approximated by using the equation vol=(a×b^2)/2, where vol, a, and b represent volume, the length of the major axis, and the length of the minor axis, respectively. Relative tumor volume is calculated by dividing tumor volume by that on day 0 (the day of treatment initiation). The weight of the mice is checked to monitor unfavorable effects by the compounds being tested and upon any indication of distress the mice is humanely euthanized.

## COc1ccc(C[C@H](NC(=O)[C@H](CCCCNC(C)=O)NC(=O)OC(C)(C)C)C(=O)N[C@H]2[C@@H](O)[C@H](n3cnc4c(N(C)C)ncnc43)O[C@@H]2CO)cc1 [BKAc-Puro, N-[3′-(α-Amino-p-methoxyhydrocinnamamido)-3′-deoxy-N,N-dimethyldenosinyl]-N-α-(t-butoxycarbonyl)-N-ε-acetyl-L-lysineamide]
[1]
  cell death: unharmed
CCD841-CoN cells
  effect on normal colon cells: relatively little effect
[2]; Caco-2, 135 μM BKAc-Puro vs parental Puro
  highest inactive dose relative to dose of parental Puro effective to these cells: more than 30 times
[2]; MTS, 5 d, sufficient inhibition not achieved with doses up to 135 μM
  IC50: > 135 µM
[3]
  IC50: ~10 µM
[4]
  cell death: effectively caused cell death
[5]
  cell death: selectively caused cell death
[6]; 5 d, all four malignant cells
  cell proliferation (cell number): impaired the proliferation
[6]; colon cell line panel
  cell death (trypan blue exclusion, morphology, PI staining): massive cell death wass detected only in the malignant cells
HCT116 xenograft tumors; 200 mg/kg, intraperitoneal
  tumor incidence (tumor volume above threshold after 2 weeks of daily treatment): no tumors greater than 300 mm^2 were observed
HCT116 xenograft tumors; intraperitoneal, tumors 200 mm^3 at start
  tumor growth: inhibition of tumor growth
HCT116 xenograft tumors; mouse, in vivo
  toxicity in tumor incidence study: no toxicity was observed
[7]
  cell proliferation (cell number): allowed them to proliferate to confluency
